The values below come from patent US12502369B2, “Methods of cancer treatment” (K-GEN, INC., priority 2015, dated 2025).

Type in all cases: cell-based
One assay concerns Capan-1. The assay can be described thus: Proliferation assay (CellTiter Glo), Capan-1. As for the experimental part:
(§1) Briefly, cells at a density of 1,000-10,000 cells/well were seeded in 96-well plates and incubated at 37′C for 24 hours. A series of 9 different concentrations of compound stocks (500×) were created by 3-fold serial dilution in DMSO. These compounds were further diluted in culture media and then added to cells so that the final DMSO concentration was 0.2%. After 96 hours of incubation, 50 μL of CellTiter Glo reagent (Promega) was added to each well and luminescence was measured after 10 minutes using EnVision (PerkinElmer). […] The dose range for most compounds was 4.6 nM-30 μM. The dose ranges for some compounds were adjusted downward to 0.46 nM-3 μM or 0.08 nM-0.5 μM or 0.03 nM-0.2 μM. Luminescence from cells treated with […] alone was set as Max and % of inhibition was calculated as follows: Inhibition %=(Max-Sample value)/Max*100. Data was analyzed using XL-fit software (ID Business Solutions Ltd.) and EC50, relative EC50, and % of top inhibition were calculated. The results are shown in Tables 3-6 for pancreatic cancer, lung cancer, colon/gastric cancer, and leukemia cell lines.
A general note: In ATP-based viability assays light output follows the ATP content of the culture.

The next assay has as its system KP-4. The assay can be described thus: Proliferation assay (CellTiter Glo), KP-4. As for the experimental part:
as §1

The next assay deals with MiaPaCa-2. The assay can be described thus: Proliferation assay (CellTiter Glo), MiaPaCa-2. The procedure:
as §1, with “calculated.” for “calculated. The results are shown in Tables 3-6 for pancreatic cancer, lung cancer, colon/gastric cancer, and leukemia cell lines.”

The test system of a further assay is A549. In words: Proliferation assay (CellTiter Glo), A549. The procedure: as §1
The test system of a further assay is H358. In words: Proliferation assay (CellTiter Glo), H358. As for the experimental part:
as §1

A further assay has as its system H441. In words: Proliferation assay (CellTiter Glo), H441. As for the experimental part:
as §1

The subject of a further assay is H727. In words: Proliferation assay (CellTiter Glo), H727. As for the experimental part:
as §1

For another assay, the system named is LS180. In words: Proliferation assay (CellTiter Glo), LS180. As for the experimental part: as §1
For the next assay, the system named is SW620. In words: Proliferation assay (CellTiter Glo), SW620. The procedure:
as §1

Another assay has as its system HCT116. In words: Proliferation assay (CellTiter Glo), HCT116. The procedure:
as §1

The subject of another assay is AGS. The assay can be described thus: Proliferation assay (CellTiter Glo), AGS. As for the experimental part:
as §1

Another assay deals with HL60. In words: Proliferation assay (CellTiter Glo), HL60. The procedure: as §1
The subject of a further assay is THP1. In words: Proliferation assay (CellTiter Glo), THP1. The procedure:
as §1

In the next assay the test system is BxPC-3. In words: Proliferation assay (CellTiter Glo), BxPC-3. As to conditions: BxPC-3 (WT K-ras). As for the experimental part: as §1, with “calculated.” for “calculated. The results are shown in Tables 3-6 for pancreatic cancer, lung cancer, colon/gastric cancer, and leukemia cell lines.”
(§2) Other cancer cell lines having wild-type K-ras status and K-ras mutation at G12 were also screened using the PKC activator compounds. […] K-104 was tested in a range of 0.03 nM-0.2 μM. […] The dose ranges were adjusted downward to 0.46 nM-3 μM for K-102 and 0.08 nM-0.5 μM for K-103 for some cell lines.

A further assay relates to SW900. The assay can be described thus: Proliferation assay (CellTiter Glo), SW900. As to conditions: SW900 (K-ras: G12V). The procedure:
as §1, with “calculated.” for “calculated. The results are shown in Tables 3-6 for pancreatic cancer, lung cancer, colon/gastric cancer, and leukemia cell lines.”
as §2

The subject of another assay is H838. In words: Proliferation assay (CellTiter Glo), H838. As to conditions: H838 (WT K-ras). As for the experimental part:
as §1, with “calculated.” for “calculated. The results are shown in Tables 3-6 for pancreatic cancer, lung cancer, colon/gastric cancer, and leukemia cell lines.”
as §2

In the next assay the test system is H1915. The assay can be described thus: Proliferation assay (CellTiter Glo), H1915. As to conditions: H1915 (WT K-ras). The procedure: as §1, with “calculated.” for “calculated. The results are shown in Tables 3-6 for pancreatic cancer, lung cancer, colon/gastric cancer, and leukemia cell lines.”
as §2

A further assay relates to HT29. The assay can be described thus: Proliferation assay (CellTiter Glo), HT29. As to conditions: HT29 (WT K-ras). As for the experimental part: as §1, with “calculated.” for “calculated. The results are shown in Tables 3-6 for pancreatic cancer, lung cancer, colon/gastric cancer, and leukemia cell lines.”
as §2

Another assay has as its system Colo205. In words: Proliferation assay (CellTiter Glo), Colo205. As to conditions: Colo205 (WT K-ras). As for the experimental part: as §1, with “calculated.” for “calculated. The results are shown in Tables 3-6 for pancreatic cancer, lung cancer, colon/gastric cancer, and leukemia cell lines.”
as §2

For the next assay, the system named is RPMI8226. In words: Proliferation assay (CellTiter Glo), RPMI8226. As to conditions: RPMI8226 (K-ras: G12A). As for the experimental part: as §1, with “calculated.” for “calculated. The results are shown in Tables 3-6 for pancreatic cancer, lung cancer, colon/gastric cancer, and leukemia cell lines.”
as §2

The next assay relates to AsPC-1. In words: Proliferation assay (CellTiter Glo), AsPC-1. As for the experimental part: as §1
The subject of another assay is Panc2.03. In words: Proliferation assay (CellTiter Glo), Panc2.03. As to conditions: for Top inhibition %: 96 hours. As for the experimental part: as §1
The subject of another assay is Panc2.13. The assay can be described thus: Proliferation assay (CellTiter Glo), Panc2.13. As for the experimental part: as §1
For a further assay, the system named is CCRF-CEM. In words: Proliferation assay (CellTiter Glo), CCRF-CEM. The procedure:
as §1

Assay [1] deals with K-Ras mutant pancreatic, lung, and colon cancer cell lines, leukemia cell lines. The assay can be described thus: Proliferation assays, panel of cancer cell lines (summary statements). As for the experimental part: as §1
Setting [2] is: absolute EC50, 96 hours, read-out: Ab EC50.
Where [3] appears, read: relative EC50, 96 hours, read-out: Re EC50.

Read-outs that look alike come from different tables or passages of the source.

For `CC(=O)O[C@@]12C[C@@H](C)[C@]3(O)C4C=C(C)C(O)[C@@]4(O)CC(CO)=C[C@H]3[C@@H]1C2(C)C` (some centres unmarked) [Compound K-101C], the Top inhibition % is given as 35.7% with Capan-1 (96 hours); 70.4% with KP-4 (96 hours); 40.1% in the assay with MiaPaCa-2 (96 hours); 70.3% with A549 (96 hours); 44.0% with H358 (96 hours); 37.0% in the assay on H441 (96 hours). Moreover, the Top inhibition % was found to be 42.8% in the assay on H727 (96 hours); 6.8% in the assay on LS180 (96 hours); 0.0% with SW620 (96 hours); 12.2% with HCT116 (96 hours); 25.3% with AGS (96 hours); 63.9% with HL60 (96 hours). In addition, the Top inhibition % in the assay on THP1 (96 hours) amounted to 51.4%; in the assay on BxPC-3, 36.67%; in the assay with SW900, 10.9%; in the assay with H838, 20.2%; in the assay on H1915 it was 28.9%; in the assay with HT29, 4.8%. Moreover, the “Top inhibition %” value in the assay with Colo205 amounted to 73.2%; with RPMI8226, 22.72%. Besides, the EC50 in the assay with Capan-1 (setting [2]) was above 30 µM; in the assay with Capan-1 (setting [3]), 5.4 µM; in the assay on KP-4 (setting [2]) it was 11 µM; in the assay on KP-4 (setting [3]), 6.77 µM; in the assay on MiaPaCa-2 (setting [2]), above 30 µM; in the assay on MiaPaCa-2 (setting [3]) it was 4.37 µM. Also, the EC50 in the assay with A549 (setting [2]) was 13 µM; in the assay with A549 (setting [3]), 6.68 µM; in the assay with H358 (setting [2]), above 30 µM; with H358 (setting [3]), 4.98 µM; in the assay on H441 (setting [2]), above 30 µM; with H441 (setting [3]), 7.44 µM. The EC50 with H727 (setting [2]) is above 30 µM; in the assay with H727 (setting [3]) it was 3.61 µM; with LS180 (setting [2]) it was above 30 µM; in the assay with SW620 (setting [2]), above 30 µM; in the assay with HCT116 (setting [2]), above 30 µM; in the assay with AGS (setting [2]), above 30 µM. In addition, the EC50 in the assay with AGS (setting [3]) stood at 11 µM; with HL60 (setting [2]), 17 µM; with HL60 (setting [3]), 13 µM; in the assay on THP1 (setting [2]), 16 µM; with THP1 (setting [3]), 8.11 µM.
Take `CC(=O)O[C@@]12C[C@@H](C)[C@]3(O)C4C=C(C)C(=O)[C@@]4(O)CC(COC(=O)CC(N)C(=O)[O-])=C[C@H]3[C@@H]1C2(C)C.[Na+]` (some centres unmarked) [Compound K-101I]: the Top inhibition % was determined as 25.0% in the assay on AsPC-1 (96 hours); 26.3% in the assay with Panc2.03; 48.3% in the assay with Panc2.13 (96 hours); 37.4% with CCRF-CEM (96 hours); 38.12% in the assay with BxPC-3; 10.8% in the assay with SW900. Also, the “Top inhibition %” value came out at 29.3% in the assay on H838; 16.4% in the assay with H1915; 11.8% in the assay with HT29; 82.2% with Colo205; 17.60% in the assay on RPMI8226. The EC50 is above 30 µM in the assay with AsPC-1 (setting [2]); 6.64 µM with AsPC-1 (setting [3]); above 30 µM in the assay on Panc2.03 (setting [2]); 6.04 µM in the assay on Panc2.03 (setting [3]); above 30 µM in the assay with Panc2.13 (setting [2]); 0.16 µM in the assay on Panc2.13 (setting [3]). Further, the EC50 in the assay on CCRF-CEM (setting [2]) is above 30 µM; with CCRF-CEM (setting [3]), 1.51 µM.
On to `CCC/C=C/C=C/C(=O)O[C@H]1/C(=C/C(=O)OC)C[C@H]2C[C@H]([C@@H](C)O)OC(=O)C[C@H](O)C[C@@H]3C[C@H](OC(C)=O)C(C)(C)[C@](O)(C[C@@H]4C/C(=C/C(=O)OC)C[C@H](/C=C/C(C)(C)[C@]1(O)O2)O4)O3` [Compound K-104, Bryostatin 1], for which the “potency in proliferation inhibition relative to prostratin” value in [1] was “less potent in proliferation inhibition”. The “activity in cancer cell lines” value in [1] (cell lines with wild-type K-ras and K-ras G12 mutations (Table 7)) is “much lower activity”.
`CC(=O)O[C@H]1C(=O)[C@@]2(C)[C@H]([C@H](OC(=O)c3ccccc3)[C@]3(O)C[C@H](OC(=O)[C@H](O)[C@@H](NC(=O)c4ccccc4)c4ccccc4)C(C)=C1C3(C)C)[C@]1(OC(C)=O)CO[C@@H]1C[C@@H]2O` [Paclitaxel, reference compound] showed a Top inhibition % in the assay with Panc2.03 of 64.6%.

In general, EC50 refers to the midpoint of the concentration-response curve.
